Assay results published in patent publication US20150190369A1, “QUERCETIN-3-GLUCOSIDE AND USES THEREOF” (priority 2012, published 2015).

Legend:
recombinant human PCSK9 = recombinant human PCSK9 (Homo sapiens, UniProt Q8NBP7); test: UV spectrometry of PCSK9-Q3G interaction; assay type: binding; details: 5 μM PCSK9 with equimolar Q3G in PBS, 5-min incubation
Method: The data discussed herein indicate that chronic exposure of Huh7 cells to Q3G reduces PCSK9 accumulation in the culture medium by delaying its transit through the secretory pathway. The delay appears not to be caused by impaired proteolytic processing of its precursor. Quercetin is known to bind, covalently in some cases, to selected cellular proteins. […] Purified recombinant PCSK9 (5μM) was mixed with or without equimolar amount of Q3G in phosphate-buffered saline. After a 5-min incubation, the UV spectrum of the mix was taken. […] It is believed that such a binding may alter PCSK9 conformation and/or retard its navigation through the secretory pathway, and, ultimately, diminish its LDL-degrading activity.

SREBP-2 = test: Immunoblotting for SREBP-2-related proteins (proSREBP-2 proteolytic activation) in Huh7 cells; assay type: cell-based, human; details: Huh7, 24 h, 5 μM Q3G, normalized for β-actin
Method: FIGS. 9A and 9B are graphs illustrating the proSREBPs-2 mRNA and SREBP-2-related protein levels for cells exposed to Q3G. Cells were incubated for 24 h in medium 5 μM Q3G. FIG. 9A illustrates the results for quantitative RT-PCR for proSREBPs-2 mRNA levels. Values are the means of triplicate experiments±SEM. FIG. 9B illustrates the results for semi-quantitative immunoblotting for cellular SREBP-2-related protein. […]
At passage, Huh7 cells were routinely seeded at sub-confluence (˜10^6 cells/10-cm dish) in Dulbecco's modified Eagle's medium (DMEM) containing 10% fetal bovine serum (FBS) or LPDS (for experiments) and 50 μg/ml gentamycin. They were incubated overnight at 37° C., in a humidified 5% CO2-95% air atmosphere. Cells were treated or not with Q3G at defined concentrations and for defined lengths of time. Media were collected and centrifuged at 200 g for 5 min to sediment suspended cells; supernatants were collected and supplemented with 0.33 volumes of a 3×-concentrated PIC. […]
Cell lysates were fractionated by SDS-PAGE and electrophoretically transferred onto a polyvinylidene fluoride membrane. […] The signal was captured on X-ray film and immunoreactive bands analyzed by densitometry on a Syngene's ChemiGenius^2XE Bio Imaging System (Cambridge, Mass.) within the dynamic range of the instrument. […]

PCSK9 mRNA = test: qRT-PCR for PCSK9 mRNA in MIN6 β-cells; assay type: cell-based, mouse; design: increase in PCSK9 mRNA: dose or concentration left out as unconfirmed; details: MIN6, 24 h
Method: Mouse insulinoma MIN6 cells were cultured in a 5% CO2-95% air atmosphere at 37° C. in DMEM medium containing 10% heat-inactivated fetal bovine serum, 1 mM Na-pyruvate, 2 mM L-glutamine, 25 mM D-glucose, and 28 μM β-mercaptoethanol. Q3G at a specific final concentration was supplemented to the culture medium and incubation was conducted for a selected length of time. Media were collected, spun at 600 g to sediment suspended cells, supplemented with 0.5 volumes of 3×RIPA-PIC (1×: 50 mM Tris-HCl, pH 8, 150 mM NaCl, 1% NP-40, 0.5% Na-deoxycholate and 0.1% SDS and PIC). Cells were lysed in 1×RIPA-PIC for immuno-blotting, or in RNA extraction buffer for qRT-PCR.
For the mouse studies, the levels of specific mRNAs were quantified in a PCR-based fluorogenic assay using the Taqman technology (Holland et al., 1991). Briefly, total RNA was extracted using the RNeasy extraction kit and reverse-transcribed into cDNA using random hexameric primers and the Superscript II RNase H-Reverse Transcriptase. The cDNA was used as a template to produce PCR amplicons using FastStart TaqMan ProbeMaster-Rox master mix, primer pairs and the appropriate fluorescent probes) in the Stratagene Mx3005P thermocycler. Standard curves were established using varying amounts of pre-quantified amplicons of each transcript. The level of mRNA for the TATA-box binding protein (TBP) was used for normalization.
MIN6 β-cells were incubated for 24 h in the presence of different concentrations of Q3G. Total RNA was extracted and analyzed by qRT-PCR for the levels of mRNA for PCSK9, LDLR, ABCA1 and ABCG1.

[1] = pigs, meal supplement; cited from earlier work

Sequence of recombinant human PCSK9 (Q8NBP7 153-692): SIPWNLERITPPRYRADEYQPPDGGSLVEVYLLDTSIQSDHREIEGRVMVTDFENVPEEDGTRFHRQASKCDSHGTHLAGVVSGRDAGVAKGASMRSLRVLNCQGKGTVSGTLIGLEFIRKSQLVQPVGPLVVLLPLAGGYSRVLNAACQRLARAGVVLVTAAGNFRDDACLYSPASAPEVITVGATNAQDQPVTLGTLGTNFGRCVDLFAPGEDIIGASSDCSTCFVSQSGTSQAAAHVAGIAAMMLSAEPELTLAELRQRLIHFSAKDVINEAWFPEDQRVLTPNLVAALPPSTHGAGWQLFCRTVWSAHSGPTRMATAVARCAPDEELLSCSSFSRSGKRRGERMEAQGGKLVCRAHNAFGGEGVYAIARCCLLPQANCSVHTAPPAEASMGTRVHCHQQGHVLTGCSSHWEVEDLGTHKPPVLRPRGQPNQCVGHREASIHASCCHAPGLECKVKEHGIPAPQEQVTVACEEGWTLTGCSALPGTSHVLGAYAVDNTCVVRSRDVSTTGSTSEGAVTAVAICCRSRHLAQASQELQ

## O=c1c(O[C@@H]2O[C@H](CO)[C@@H](O)[C@H](O)[C@H]2O)c(-c2ccc(O)c(O)c2)oc2cc(O)cc(O)c12 [Q3G, quercetin-3-O-β-D-glucoside]
Recombinant human PCSK9
  interaction with PCSK9 (changes of optical density and spectral profile): suggest interaction
SREBP-2
  increase of ratio of 65-kDa nuclear SREBP-2 over its 148-kDa ER precursor: up to 4 fold
PCSK9 mRNA; Q3G 8 mM and above
  effect on PCSK9 mRNA levels: increased
PCSK9 mRNA; Q3G up to 4 mM
  effect on PCSK9 mRNA levels: does not affect
PCSK9 mRNA; maximum Q3G concentration used
  increase in PCSK9 mRNA: 2.5 fold
[1]
  quercetin bioavailability versus quercetin aglycone and rutin: significantly greater
